From US12441693B2, “Targeting STAT sumoylation to enhance immune responses” (THE GEORGE WASHINGTON UNIVERSITY, priority 2018, dated 2025)
Read-outs that look alike come from different tables or passages of the source.

Experiments:
[1] = system: Interferon Stimulated Genes (ISGs); experiment: RNASeq of primary CD4 T cells; assay type: cell-based, human; conditions: IL-2 and HODHBt vs IL-2 and DMSO
Experimental: RNASeq was performed in primary CD4 T cells treated with HODHBt following the method of Bosque et al., CELL REP. 2017; 18(5):1324-1334, the disclosure of which is hereby incorporated by reference in its entirety.
Total RNA was extracted from cells using Trizol (Invitrogen 15596), polyadenylated RNA was enriched using NEXTflex Poly(A) Beads (Bioo Scientific 512980), and stranded libraries were prepared using a NEXTflex Rapid Directional qRNA-Seq Kit (Bioo Scientific 5130-02D). Sequencing was performed by the Iowa Institute of Human Genetics Genomics Division on an Illumina HiSeq 2500 using 125 base pair (bp) paired-end reads. Raw paired sequences were first trimmed to remove Illumina sequencing adapters and Bioo Scientific randomized 8-mer molecular indexes using Trim Galore! […] For RNA-Seq tracks, reads were then compiled using the genomecov (-split) function of bedtools 2.25.0, normalized by dividing the number of hg19-mapped reads within each sample by the average number of hg19-mapped reads across all nine samples, combined across donors, and visualized on the UCSC Genome Browser. For differential expression analysis, reads were counted over UCSC hg19 genes (26,364 entries) using the featureCounts (-p -B -C -M) function of Subread 1.5.0 (Liao et al., 2014). […]

NK cells [2] = system: NK cells
Experimental: To determine if STAT SUMOylation increases Gzm B expression in NK cells, isolated human NK cells were analyzed after a 3-day incubation with either IL-2, IL-15, HODHBt, IL-2+IL-15, HODHBt+IL-2, HODHBt+IL-15, or HODHBt+IL-2+IL-15.
To further characterize the effects of STAT SUMOylation inhibition in NK cell function, primary human NK cells were isolated and cultured with IL-15 in the presence or absence of HODHBt. 48 hours later, cells were phenotyped by flow cytometry.
To characterize the induction of other proteins known to be important for the cytolytic activity of NK cells, primary human NK cells were isolated from 6 male and 6 female donors and cultured with IL-15 in the presence or absence of HODHBt. 48 hours later, levels of Granzyme A (FIG. 18A), Perforin (FIG. 18B), Granulysin (FIG. 18C), TRAIL (FIG. 18D) and Fas ligand (FASL) (FIG. 18E) were analyzed by flow cytometry.
Antibody-dependent cell-mediated cytotoxicity (ADCC) is mediated by the recognition of an antibody bound to a cell through an Fc receptor present in NK cells, mostly CD16 (FCGR3A). To address whether inhibiting STAT SUMOylation alters CD16 expression in the surface of NK cells, freshly isolated NK cells were treated with either IL-15, HODHBt or a combination of both for 48 hours and surface expression of CD16 was measured by flow cytometry.
Since IL-15 activated STATs, it was hypothesized that STATs, and in particular STAT1, was controlling expression of CXCR5 (C—X—C Motif Chemokine Receptor 5) and that inhibiting STAT SUMOylation enhances CXCR5 expression and promotes migration towards a CXCL13 (C—X—C Motif Chemokine Ligand 13) gradient. CXCL13 controls homing of lymphocytes to follicles in lymph nodes; however whether this mechanism of regulation exists in human NK cells and whether IL-15 controls expression were unknown. To address which one of the two scenarios was potentially playing a role in the presence of NK cells within the follicles, human NK cells were treated with IL-15, HODHBt or a combination of both for 48 hours. Surface expression of CXCR5 and viability were next measured by flow cytometry.
To phenotype the cells, 1×10^5 cells were stained with a viability dye (Fixable Viability Dye eFluor 450, Affymetrix, eBioscience, San Diego, CA) and the surface marker-specific mAb specific for human: PE-anti-CD25 (Caltag, Burlingame, CA) and PE-anti-CD69 (Caltag, Burlingame, CA) followed by flow cytometric analysis in a BD FACScanto II flow cytometer using the FACSDiva software (Becton Dickinson, Mountain View, CA) and analyzed using FlowJo (Tree Star Inc., Ashland, OR).

NK cells [3] = experiment: In vitro expansion of NK cells with IL-2; assay type: cell-based, human; conditions: 500 IU/ml of IL-2, two HIV-negative donors
Excerpt: As for CD8 T cells, STATS play an important role in the expansion of NK cells. As such, it was hypothesized that inhibiting STAT SUMOylation may enhance the expansion of NK cells. This has important implications for adoptive cell immunotherapies as NK cells are increasingly becoming an attractive alternative to T cell therapies. In order to address whether inhibiting STAT SUMOylation may enhance NK proliferation in vitro, NK cells were isolated from two human HIV-negative donors and expanded using Miltenyi Biotec NK MACS Medium in the presence of 500 IU/ml of IL-2 and in the presence or absence of HODHBt.

STAT5, STAT1, STAT3 = experiment: Western blot of phosphorylated STATs in NK cells; assay type: cell-based, human
Experimental: Next, NK cells were cultured with IL-15 in the presence or absence of HODHBt and levels of phosphorylated STATs were measured by Western blot.
In general, samples are prepared and loaded on to a gel and during the electrophoresis the negatively charged proteins move toward the positively charged anode. In order to further analyze the proteins, they are transferred onto a membrane in a procedure called blotting. After the transfer, the membrane is blocked in order to prevent unwanted membrane-protein interaction in the following steps. To visualize the protein of interest the membrane is commonly first probed using a primary protein-specific antibody followed by a labeled secondary antibody used for detection. An image is taken of the membrane and the result is analyzed.

SMILES: O=c1c2ccccc2nnn1O [HODHBt]
- expression of Interferon Stimulated Genes (RNASeq) [1]: induction of several Interferon Stimulated Genes
- Gzm B expression in NK cells (percentage of cells and MFI) (NK cells [2]; 3-day incubation, with IL-2, IL-15 or both): increased Gzm B expression in NK cells treated with IL-2, IL-15 or a combination of both
- surface expression of CD16 on NK cells (NK cells [2]; 48 hours, with or without IL-15): sufficient to increase the levels of CD16 expression in NK cells independent of the presence of IL-15
- surface expression of CXCR5 on NK cells (NK cells [2]; IL-15 in the presence of HODHBt, 48 hours): dramatically increased in the presence of HODHBt
- expression of GZMB in NK cells (NK cells [2]; combination of IL-15 and HODHBt, 48 hours): greatly increased the expression of GZMB
- expression of Granzyme A, Perforin, Granulysin, TRAIL and FASL in NK cells (NK cells [2]; combination of IL-15 and HODHBt, vs IL-15 control, 48 hours): enhanced gene expression above IL-15 control
- viability / survival of NK cells (NK cells [2]; human, 48 h): did not affect the viability of NK cells either alone or in combination with IL-15
- surface expression of CD69 and CD25 on NK cells (NK cells [2]; in combination with IL-15, vs IL-15 alone, 48 hours): enhanced the expression of both surface markers over IL-15 alone
- surface expression of CD25 on NK cells (NK cells [2]; single agent, 48 hours): did not change the surface expression
- surface expression of CD69 on NK cells (NK cells [2]; single agent, 48 hours): did not change the surface expression of CD69
- expression of GZMB in NK cells (NK cells [2]; single agent, vs media control, 48 hours): did not have any effect over media control
- NK cell expansion (NK cells [3]): enhanced NK cell expansion in vitro
- phosphorylation of STAT1 in NK cells (STAT5, STAT1, STAT3; HODHBt alone): increased the phosphorylation levels of STAT1
- phosphorylation of STAT5 in NK cells (STAT5, STAT1, STAT3; after IL-15 treatment): increased the levels of phosphorylation of STAT5 after IL-15 treatment
- phosphorylation of STAT1 and STAT3 in NK cells (STAT5, STAT1, STAT3; with IL-15, vs IL-15): enhanced the levels of phosphorylation of STAT1 and STAT3 induced by IL-15
